Source: patent US6479435B1, “Diaryl ethers and processes for their preparation and herbicidal and desiccant compositions containing them” (ISK Americas Incorporated, priority 1997, dated 2002)

What was measured:
Format in all cases: in vivo
[1] = tested on: redroot pigweed (Amaranthus retroflexus, AMARE); test: Pre-emerge greenhouse herbicide test, phytotoxicity rating; settings: Amaranthus retroflexus, pre-emergence, 336 h, 14 days after application, rating scale 0-100; for pest or weed control at 125 g/ha: Rate 125 g al/ha; for pest or weed control at 500 g/ha: Rate 500 g al/ha
In short: (§1)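 Seeds sown in sandy loam one day before track-sprayer application of acetone solutions at 125–1000 g ai/ha (187 l/ha), then surface-watered to incorporate and bottom-watered. Injury scored visually at 14 days on a 0–100 scale (0 no damage, 100 complete death).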

[2] = tested on: lambsquarters (Chenopodium album, CHEAL); test: as above; settings: Chenopodium album, pre-emergence, 336 h, 14 days after application, rating scale 0-100; for pest or weed control at 125 g/ha: Rate 125 g al/ha; for pest or weed control at 500 g/ha: Rate 500 g al/ha
In short: as §1

[3] = tested on: Johnsongrass (Sorghum halepense, SORHA); test: as above; settings: Sorghum halepense, pre-emergence, 336 h, 14 days after application, rating scale 0-100; for pest or weed control at 125 g/ha: Rate 125 g al/ha; for pest or weed control at 500 g/ha: Rate 500 g al/ha
In short: as §1

[4] = tested on: velvetleaf (Abutilon theophrasti, ABUTH); test: as above; settings: Abutilon theophrasti, pre-emergence, 336 h, 14 days after application, rating scale 0-100; for pest or weed control at 125 g/ha: Rate 125 g al/ha; for pest or weed control at 500 g/ha: Rate 500 g al/ha
In short: as §1

[5] = tested on: ivyleaf morningglory (Ipomoea hederacea, IPOHE); test: as above; settings: Ipomoea, pre-emergence, 336 h, 14 days after application, rating scale 0-100; for pest or weed control at 125 g/ha: Rate 125 g al/ha; for pest or weed control at 500 g/ha: Rate 500 g al/ha
In short: as §1

[6] = tested on: green foxtail (Setaria viridis, SETVI); test: as above; settings: Setaria viridis, pre-emergence, 336 h, 14 days after application, rating scale 0-100; for pest or weed control at 125 g/ha: Rate 125 g al/ha; for pest or weed control at 500 g/ha: Rate 500 g al/ha
In short: as §1

[7] = tested on: redroot pigweed (Amaranthus retroflexus, AMARE); test: Post-emerge greenhouse herbicide test, phytotoxicity rating; settings: Amaranthus retroflexus, post-emergence, 336 h, 14 days after application, scale 0-100; for pest or weed control at 63 g/ha: rate 63 g ai/ha; for pest or weed control at 500 g/ha: rate 500 g ai/ha
In short: (§2)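 Plants at the 2-3 leaf stage, sown 8-21 days earlier, were track-sprayed post-emergence with compound in acetone plus 0.25% v/v non-ionic surfactant at 63-1000 g ai/ha (187 l/ha). Damage was rated at 14 days on a 0-100 scale (0 none, 100 all plants dead), for both crop injury and weed control.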

[8] = tested on: sicklepod (Cassia obtusifolia, CASOB); test: as above; settings: Senna obtusifolia, post-emergence, 336 h, 14 days after application, scale 0-100; for pest or weed control at 63 g/ha: rate 63 g ai/ha; for pest or weed control at 500 g/ha: rate 500 g ai/ha
In short: as §2

[9] = tested on: lambsquarters (Chenopodium album, CHEAL); test: as above; settings: Chenopodium album, post-emergence, 336 h, 14 days after application, scale 0-100; for pest or weed control at 63 g/ha: rate 63 g ai/ha; for pest or weed control at 500 g/ha: rate 500 g ai/ha
In short: as §2

[10] = tested on: Johnsongrass (Sorghum halepense, SORHA); test: as above; settings: Sorghum halepense, post-emergence, 336 h, 14 days after application, scale 0-100; for pest or weed control at 63 g/ha: rate 63 g ai/ha; for pest or weed control at 500 g/ha: rate 500 g ai/ha
In short: as §2

[11] = tested on: barnyardgrass (Echinochloa crusgalli, ECHCG); test: as above; settings: Echinochloa crus-galli, post-emergence, 336 h, 14 days after application, scale 0-100; for pest or weed control at 63 g/ha: rate 63 g ai/ha; for pest or weed control at 500 g/ha: rate 500 g ai/ha
In short: as §2

[12] = tested on: velvetleaf (Abutilon theophrasti, ABUTH); test: as above; settings: Abutilon theophrasti, post-emergence, 336 h, 14 days after application, scale 0-100; for pest or weed control at 63 g/ha: rate 63 g ai/ha; for pest or weed control at 500 g/ha: rate 500 g ai/ha
In short: as §2

[13] = tested on: ivyleaf morningglory (Ipomoea hederacea, IPOHE); test: as above; settings: Ipomoea, post-emergence, 336 h, 14 days after application, scale 0-100; for pest or weed control at 63 g/ha: rate 63 g ai/ha; for pest or weed control at 500 g/ha: rate 500 g ai/ha
In short: as §2

[14] = tested on: green foxtail (Setaria viridis, SETVI); test: as above; settings: Setaria viridis, post-emergence, 336 h, 14 days after application, scale 0-100; for pest or weed control at 63 g/ha: rate 63 g ai/ha; for pest or weed control at 500 g/ha: rate 500 g ai/ha
In short: as §2

[15] = tested on: large crabgrass (Digitaria sanguinalis, DIGSA); test: as above; settings: Digitaria sanguinalis, post-emergence, 336 h, 14 days after application, scale 0-100; for pest or weed control at 63 g/ha: rate 63 g ai/ha; for pest or weed control at 500 g/ha: rate 500 g ai/ha
In short: as §2

Structure (SMILES) | pest or weed control at 125 g/ha [1] | pest or weed control at 500 g/ha [1] | pest or weed control at 125 g/ha [2] | pest or weed control at 500 g/ha [2] | pest or weed control at 125 g/ha [3] | pest or weed control at 500 g/ha [3] | pest or weed control at 125 g/ha [4] | pest or weed control at 500 g/ha [4] | pest or weed control at 125 g/ha [5] | pest or weed control at 500 g/ha [5] | pest or weed control at 125 g/ha [6] | pest or weed control at 500 g/ha [6] | pest or weed control at 63 g/ha [7] | pest or weed control at 500 g/ha [7] | pest or weed control at 63 g/ha [8] | pest or weed control at 500 g/ha [8] | pest or weed control at 63 g/ha [9] | pest or weed control at 500 g/ha [9] | pest or weed control at 63 g/ha [10] | pest or weed control at 500 g/ha [10] | other results
Nn1c(C(F)(F)F)cc(=O)n(-c2cc(Oc3ccc([N+](=O)[O-])cc3C(F)(F)F)c(Cl)cc2F)c1=O [Compound 9-22, 1-Amino-3-[4-chloro-2-fluoro-5-(4-nitro-2-trifluoromethylphenoxy)phenyl]-6-trifluoromethyl-1,2,3,4-tetrahydropyrimidine-2,4-dione] | 100% | 100% | 100% | 100% | 50% | 95% | 100% | 100% | 90% | 80% | 90% | 100% | 100% | 100% | 30% | 70% | 40% | 100% | 0% | 80% | pest or weed control at 63 g/ha [11]: 20%; pest or weed control at 500 g/ha [11]: 90%; pest or weed control at 63 g/ha [12]: 100%; pest or weed control at 500 g/ha [12]: 100%; pest or weed control at 63 g/ha [13]: 100%; pest or weed control at 500 g/ha [13]: 100%; pest or weed control at 63 g/ha [14]: 10%; pest or weed control at 500 g/ha [14]: 80%; pest or weed control at 63 g/ha [15]: 10%; pest or weed control at 500 g/ha [15]: 50%
Nn1c(C(F)(F)F)cc(=O)n(-c2cc(Oc3cc([N+](=O)[O-])cc(C(F)(F)F)c3)c(Cl)cc2F)c1=O [Compound 9-23, 1-Amino-3-[4-chloro-2-fluoro-5-(3-nitro-5-trifluoromethylphenoxy)phenyl]-6-trifluoromethyl-1,2,3,4-tetrahydropyrimidine-2,4-dione] | 100% | 100% | 95% | 100% | 10% | 70% | 40% | 100% | 0% | 0% | 40% | 100% | 85% | 85% | 10% | 30% | 70% | 95% | 0% | 30% | pest or weed control at 63 g/ha [11]: 0%; pest or weed control at 500 g/ha [11]: 50%; pest or weed control at 63 g/ha [12]: 45%; pest or weed control at 500 g/ha [12]: 90%; pest or weed control at 63 g/ha [13]: 50%; pest or weed control at 500 g/ha [13]: 75%; pest or weed control at 63 g/ha [14]: 0%; pest or weed control at 500 g/ha [14]: 10%; pest or weed control at 63 g/ha [15]: 0%; pest or weed control at 500 g/ha [15]: 0%
Nn1c(C(F)(F)F)cc(=O)n(-c2cc(Oc3ccccc3C(F)(F)F)c(Cl)cc2F)c1=O [Compound 9-24, 1-amino-3-[4-chloro-2-fluoro-5-(2-trifluoromethylphenoxy)phenyl]-6-trifluoromethyl-1,2,3,4-tetrahydropyrimidine-2,4-dione] | 95% | 100% | 100% | 100% | 30% | 90% | 99% | 100% | 30% | 30% | 100% | 100% | 100% | 100% | 30% | 80% | 100% | 100% | 30% | 70% | pest or weed control at 63 g/ha [11]: 30%; pest or weed control at 500 g/ha [11]: 90%; pest or weed control at 63 g/ha [12]: 100%; pest or weed control at 500 g/ha [12]: 100%; pest or weed control at 63 g/ha [13]: 100%; pest or weed control at 500 g/ha [13]: 100%; pest or weed control at 63 g/ha [14]: 70%; pest or weed control at 500 g/ha [14]: 95%; pest or weed control at 63 g/ha [15]: 40%; pest or weed control at 500 g/ha [15]: 75%
